Patent publication US7208500B2, “Thienopyridine-phenylacetamides and their derivatives useful as new anti-angiogenic agents” (Agouron Pharmaceuticals, Inc., priority 2003, dated 2007)

Tests used:
[1] = biological target: T1, unphosphorylated VEGF-R2D50 (FLVK), cytosolic domain of human VEGF-R2 (Homo sapiens, UniProt P35968, DEL940-989/E990V); assay: VEGF-R2 coupled spectrophotometric assay (FLVK); format: biochemical
T1 construct: VEGF-R2D50 contains residues 806–939 and 990–1171; made in house; host or cells: baculovirus/insect cell system
T1 sequence (P35968 with tags, fused parts or gaps DEL940-989/E990V limits assumed): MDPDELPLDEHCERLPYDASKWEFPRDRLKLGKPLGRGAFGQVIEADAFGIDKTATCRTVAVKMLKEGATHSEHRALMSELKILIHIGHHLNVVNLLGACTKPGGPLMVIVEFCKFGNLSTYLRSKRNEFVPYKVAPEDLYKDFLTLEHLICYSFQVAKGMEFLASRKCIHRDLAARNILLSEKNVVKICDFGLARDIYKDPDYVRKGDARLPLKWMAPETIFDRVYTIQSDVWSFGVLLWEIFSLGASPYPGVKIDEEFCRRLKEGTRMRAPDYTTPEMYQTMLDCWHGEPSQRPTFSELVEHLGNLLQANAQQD
Description: This construct determines the ability of a test compound to inhibit tyrosine kinase activity. A construct (VEGF-R2D50) of the cytosolic domain of human vascular endothelial growth factor receptor 2 (VEGF-R2) lacking the 50 central residues of the 68 residues of the kinase insert domain was expressed in a baculovirus/insect cell system. Of the 1356 residues of full-length VEGF-R2, VEGF-R2D50 contains residues 806–939 and 990–1171, and also one point mutation (E990V) within the kinase insert domain relative to wild-type VEGF-R2. Autophosphorylation of the purified construct was performed by incubation of the enzyme at a concentration of […] in the presence of 3 mM ATP and 40 mM MgCl2 in 100 mM HEPES, pH 7.5, containing 5% glycerol and 5 mM DTT, at 4° C. for 2 h. […] See Parast et al., Biochemistry, 37, 16788–16801 (1998).
The production of ADP from ATP that accompanies phosphoryl transfer was coupled to oxidation of NADH using phosphoenolpyruvate (PEP) and a system having pyruvate kinase (PK) and lactic dehydrogenase (LDH). The oxidation of NADH was monitored by following the decrease of absorbance at 340 nm (e340=6.22 cm^−1 mM^−1) using a Beckman DU 650 spectrophotometer. Assay conditions for phosphorylated VEGF-R2D50 (indicated as FLVK-P in the tables below) were the following: 1 mM PEP; […]; 50 units of LDH/mL; 20 units of PK/mL; 5 mM DTT; 5.1 mM poly(E4Y1); 1 mM ATP; and 25 mM MgCl2 in 200 mM HEPES, pH 7.5. Assay conditions for unphosphorylated VEGF-R2D50 (indicated as FLVK in the tables) were the following: 1 mM PEP; […]; 50 units of LDH/mL; 20 units of PK/mL; 5 mM DTT; 20 mM poly(E4Y1); 3 mM ATP; and 60 mM MgCl2 and 2 mM MnCl2 in 200 mM HEPES, pH 7.5. Assays were initiated with 5 to 40 nM of enzyme. Ki values were determined by measuring enzyme activity in the presence of varying concentrations of test compounds. The percent inhibition at 50 nm (% inhibition@50 nm) was determined by linear least-squares regression analysis of absorpbance as a function of time. The binding inhibitions were fitted to equation as described by Morrison. The data were analyzed using Enzyme Kinetic and Kaleidagraph software.

[2] = test system: human umbilical vein endothelial cells (HUVEC); assay: HUVEC + VEGF proliferation assay; format: cell-based; details: VEGF-stimulated proliferation, final VEGF 6 ng/mL, 72 hours, MTT
Method: This assay determines the ability of a test compound to inhibit the growth factor-stimulated proliferation of human umbilical vein endothelial cells (“HUVEC”). HUVEC cells (passage 3–4, Clonetics, Corp.) were thawed into EGM2 culture medium (Clonetics Corp) in T75 flasks. Fresh EGM2 medium was added to the flasks 24 hours later. Four or five days later, cells were exposed to another culture medium (F12K medium supplemented with 10% fetal bovine serum (FBS), […] endothelial cell growth supplement (ECGS), and 0.1 mg/mL heparin). Exponentially-growing HUVEC cells were used in experiments thereafter. Ten to twelve thousand HUVEC cells were plated in 96-well dishes in […] of rich, culture medium (described above). The cells were allowed to attach for 24 hours in this medium. The medium was then removed by aspiration and […] of starvation media (F12K+1% FBS) was added to each well. After 24 hours, […] of test agent dissolved in 1% DMSO in starvation medium or this vehicle alone was added into each treatment well; the final DMSO concentration was 0.1%. One hour later, […] of VEGF (30 ng/mL) in starvation media was added to all wells except those containing untreated controls; the final VEGF concentration was 6 ng/mL. Cellular proliferation was quantified 72 hours later by MTT dye reduction, at which time cells were exposed for 4 hours MTT (Promega Corp.). Dye reduction was stopped by addition of a stop solution (Promega Corp.) and absorbance at 595 nm was determined on a 96-well spectrophotometer plate reader.

[3] = biological target: T2, FGF-R1 intracellular kinase domain (Homo sapiens, UniProt P11362, C488A/C584S/L457V); assay: FGF-R spectrophotometric assay; format: biochemical; details: 50 nM test compound; read-out: FGF-P (% inh @ 50 nM)
T2 construct: starting from the endogenous methionine residue 456 to glutamate 766; made in house; host or cells: baculovirus vector expression system
T2 sequence (P11362 456-766 L457V/C488A/C584S): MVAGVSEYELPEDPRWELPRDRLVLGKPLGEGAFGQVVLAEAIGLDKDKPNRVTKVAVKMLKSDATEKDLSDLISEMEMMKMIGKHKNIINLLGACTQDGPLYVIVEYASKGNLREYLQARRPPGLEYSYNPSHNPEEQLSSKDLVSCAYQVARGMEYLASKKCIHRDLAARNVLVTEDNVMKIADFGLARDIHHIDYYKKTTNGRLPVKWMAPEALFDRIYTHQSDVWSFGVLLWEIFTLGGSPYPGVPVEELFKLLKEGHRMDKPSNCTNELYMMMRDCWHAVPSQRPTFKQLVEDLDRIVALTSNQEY
Method: The intracellular kinase domain of human FGF-R1 was expressed using the baculovirus vector expression system starting from the endogenous methionine residue 456 to glutamate 766, according to the residue numbering system of Mohammadi et al., Mol. Cell. Biol., 16, 977–989 (1996). In addition, the construct also has the following 3 amino acid substitutions: L457V, C488A, and C584S.
The spectrophotometric assay was carried out as described above for VEGF-R2, except for the following changes in concentration: FGF-R=50 nM, ATP=2 mM, and poly(E4Y1)=15 mM.

SMILES | Ki [1] [nM] | IC50 [2] [nM] | inhibition at 0.05 µM [3] [%]
Cc1cc(C)nc(NC(=O)Cc2ccc(Oc3ccnc4cc(C(=O)N(C)C)sc34)cc2)c1 [Example 7, 7-{4-[(4,6-Dimethyl-pyridin-2-ylcarbamoyl)-methyl]-phenoxy}-thieno[3,2-b]pyridine-2-carboxylic acid dimethylamide] | < 1 | < 1 | 5 to 10
CN(C)C(=O)c1cc2nccc(Oc3ccc(CC(=O)Nc4ccc(Cl)cn4)cc3)c2s1 [Example 8, 7-{4-[(5-Chloro-pyridin-2-ylcarbamoyl)-methyl]-phenoxy}-thieno[3,2-b]pyridine-2-carboxylic acid dimethylamide] | 1 to 10 | > 10 | 0 to 5
Cc1cc(C)nc(NC(=O)Cc2ccc(Oc3ccnc4cc(-c5nccn5C)sc34)cc2)c1 [Example 9, N-(4,6-Dimethyl-pyridin-2-yl)-2-{4-[2-(1-methyl-1H-imidazol-2-yl)-thieno[3,2-b]pyridin-7-yloxy]-phenyl}-acetamide] | < 1 | < 1 | 5 to 10
Cn1ccnc1-c1cc2nccc(Oc3ccc(CC(=O)Nc4ccc(Cl)cn4)cc3)c2s1 [Example 10, N-(5-Chloro-pyridin-2-yl)-2-{4-[2-(1-methyl-1H-imidazol-2-yl)-thieno[3,2-b]pyridin-7-yloxy]-phenyl}-acetamide] | < 1 | < 1 | 0 to 5
Cc1ccnc(NC(=O)Cc2ccc(Oc3ccnc4cc(-c5nccn5C)sc34)cc2)c1 [Example 11, 2-{4-[2-(1-Methyl-1H-imidazol-2-yl)-thieno[3,2-b]pyridin-7-yloxy]-phenyl}-N-(4-methyl-pyridin-2-yl)-acetamide] | < 1 | > 10 | 0 to 5
Cn1ccnc1-c1cc2nccc(Oc3ccc(CC(=O)Nc4cc5ccccc5cn4)cc3)c2s1 [Example 12, N-Isoquinolin-3-yl-2-(4-[2-(1-methyl-1H-imidazol-2-yl)-thieno[3,2-b]pyridin-7-yloxy]-phenyl}-acetamide] | < 1 | > 10 | 5 to 10
Cn1ccnc1-c1cc2nccc(Oc3ccc(CC(=O)Nc4ccc(C(F)(F)F)cn4)cc3)c2s1 [Example 13, 2-{4-[2-(1-Methyl-1H-imidazol-2-yl)-thieno[3,2-b]pyridin-7-yloxy]-phenyl}-N-(5-trifluoromethyl-pyridin-2-yl)-acetamide] | < 1 | > 10 | 5 to 10
Cc1cc(C)nc(NC(=O)Cc2ccc(Oc3ccnc4cc(C(=O)N5CC[C@@H](O)C5)sc34)cc2)c1 [Example 14, N-(4,6-Dimethyl-pyridin-2-yl)-2-{4-[2-((R)-3-hydroxy-pyrrolidine-1-carbonyl)-thieno[3,2-b]pyridin-7-yloxy]-phenyl}-acetamide] | < 1 | 1 to 10 | 5 to 10
Cc1ccnc(NC(=O)Cc2ccc(Oc3ccnc4cc(C(=O)N5CC[C@@H](O)C5)sc34)cc2)c1 [Example 15, 2-{4-[2-((R)-3-Hydroxy-pyrrolidine-1-carbonyl)-thieno[3,2-b]pyridin-7-yloxy]-phenyl}-N-(4-methyl-pyridin-2-yl)-acetamide] | < 1 | < 1 | 0 to 5
O=C(Cc1ccc(Oc2ccnc3cc(C(=O)N4CC[C@@H](O)C4)sc23)cc1)Nc1ccc(Cl)cn1 [Example 16, N-(5-Chloro-pyridin-2-yl)-2-{4-[2-((R)-3-hydroxy-pyrrolidine-1-carbonyl)-thieno[3,2-b]pyridin-7-yloxy]-phenyl}-acetamide] | 1 to 10 | > 10 | 0 to 5
O=C(Cc1ccc(Oc2ccnc3cc(C(=O)N4CC[C@@H](O)C4)sc23)cc1)Nc1cc2ccccc2cn1 [Example 17, 2-{4-[2-((R)-3-Hydroxy-pyrrolidine-1-carbonyl)-thieno[3,2-b]pyridin-7-yloxy]-phenyl}-N-isoquinolin-3-yl-acetamide] | < 1 | > 10 | > 10
O=C(Cc1ccc(Oc2ccnc3cc(C(=O)N4CC[C@@H](O)C4)sc23)cc1)Nc1ccc(C(F)(F)F)cn1 [Example 18, 2-{4-[2-((R)-3-Hydroxy-pyrrolidine-1-carbonyl)-thieno[3,2-b]pyridin-7-yloxy]-phenyl}-N-(5-trifluoromethyl-pyridin-2-yl)-acetamide] | < 1 | > 10 | 5 to 10
O=C(Cc1ccc(Oc2ccnc3cc(C(=O)N4CC[C@@H](O)C4)sc23)cc1)Nc1ccccn1 [Example 19, 2-{4-[2-((R)-3-Hydroxy-pyrrolidine-1-carbonyl)-thieno[3,2-b]pyridin-7-yloxy]-phenyl}-N-pyridin-2-yl-acetamide] | 1 to 10 | > 10 | 0 to 5
O=C(Cc1ccc(Oc2ccnc3cc(C(=O)N4CC[C@@H](O)C4)sc23)cc1)Nc1ccccc1 [Example 20, 2-{4-[2-((R)-3-Hydroxy-pyrrolidine-1-carbonyl)-thieno[3,2-b]pyridin-7-yloxy]-phenyl}-N-phenyl-acetamide] | 1 to 10 | 1 to 10 | 0 to 5
Cc1ccnc(NC(=O)Cc2ccc(Oc3ccnc4cc(C(=O)N5CCC5)sc34)cc2)c1 [Example 23, 2-{4-[2-(Azetidine-1-carbonyl)-thieno[3,2-b]pyridin-7-yloxy]-phenyl}-N-(4-methyl-pyridin-2-yl)-acetamide] | < 1 | < 1 | 0 to 5
Cc1ccc(NC(=O)Cc2ccc(Oc3ccnc4cc(C(=O)N5CCC5)sc34)cc2)nc1 [Example 24, 2-{4-[2-(Azetidine-1-carbonyl)-thieno[3,2-b]pyridin-7-yloxy]-phenyl}-N-(5-methyl-pyridin-2-yl)-acetamide] | < 1 | 1 to 10 | 0 to 5
Cc1cccc(NC(=O)Cc2ccc(Oc3ccnc4cc(C(=O)N5CCC5)sc34)cc2)n1 [Example 25, 2-{4-[2-(Azetidine-1-carbonyl)-thieno[3,2-b]pyridin-7-yloxy]-phenyl}-N-(6-methyl-pyridin-2-yl)-acetamide] | < 1 | 1 to 10 | 5 to 10
O=C(Cc1ccc(Oc2ccnc3cc(C(=O)N4CCC4)sc23)cc1)Nc1ccc(C(F)(F)F)cn1 [Example 27, 2-{4-[2-(Azetidine-1-carbonyl)-thieno[3,2-b]pyridin-7-yloxy]-phenyl}-N-(5-trifluoromethyl-pyridin-2-yl)-acetamide] | < 1 | 1 to 10 | 0 to 5
